Columns and labels:
[1] = biological target: Somatostatin receptor type 1 (Homo sapiens, UniProt P30872); assay: Displacement of [3-125l-Tyr]-somatostatin-(1 -14) from human recombinant somatostatin 1 receptor expressed in CHO cell membranes incubated for 180 mins
[2] = biological target: Somatostatin receptor type 2 (Homo sapiens, UniProt P30874); assay: Displacement of [3-125l-Tyr]-somatostatin-(1 -14) from human recombinant somatostatin 2 receptor expressed in CHO cell membranes incubated for 180 mins
[3] = biological target: Somatostatin receptor type 3 (Homo sapiens, UniProt P32745); assay: Displacement of [3-125l-Tyr]-somatostatin-(1 -14) from human recombinant somatostatin 3 receptor expressed in CHO cell membranes incubated for 180 mins
[4] = biological target: Somatostatin receptor type 5 (Homo sapiens, UniProt P35346); assay: Displacement of [3-125l-Tyr]-somatostatin-(1 -14) from human recombinant somatostatin 5 receptor expressed in CHO cell membranes incubated for 180 mins
[5] = Metabolic stability in pooled human liver microsomes assessed as half life at 0.1 uM at 37 degC in presence of NADPH by LC-MS/MS method; type: ADME

Sequence of Somatostatin receptor type 3 (P32745 whole entry): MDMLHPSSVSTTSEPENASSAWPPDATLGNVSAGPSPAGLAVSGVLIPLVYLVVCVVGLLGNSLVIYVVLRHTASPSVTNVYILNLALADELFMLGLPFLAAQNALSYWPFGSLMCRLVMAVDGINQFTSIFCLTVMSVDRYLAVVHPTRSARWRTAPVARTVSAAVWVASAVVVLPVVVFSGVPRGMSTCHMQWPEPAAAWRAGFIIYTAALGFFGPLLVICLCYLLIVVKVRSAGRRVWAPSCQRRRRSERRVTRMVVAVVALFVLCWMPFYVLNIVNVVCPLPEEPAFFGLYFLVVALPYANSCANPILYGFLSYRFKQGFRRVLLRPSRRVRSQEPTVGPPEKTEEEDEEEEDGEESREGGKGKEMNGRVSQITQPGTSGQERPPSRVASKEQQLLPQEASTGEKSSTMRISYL
Sequence of Somatostatin receptor type 5 (P35346 whole entry): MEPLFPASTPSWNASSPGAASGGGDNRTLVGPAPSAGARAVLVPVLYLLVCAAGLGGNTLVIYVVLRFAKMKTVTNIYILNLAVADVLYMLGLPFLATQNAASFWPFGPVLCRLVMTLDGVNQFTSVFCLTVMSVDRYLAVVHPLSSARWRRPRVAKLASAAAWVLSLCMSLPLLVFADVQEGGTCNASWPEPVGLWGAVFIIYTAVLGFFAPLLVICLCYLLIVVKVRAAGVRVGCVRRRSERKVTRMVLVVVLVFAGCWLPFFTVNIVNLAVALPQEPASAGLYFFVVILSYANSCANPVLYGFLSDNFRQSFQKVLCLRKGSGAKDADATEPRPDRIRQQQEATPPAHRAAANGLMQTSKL
Sequence of Somatostatin receptor type 2 (P30874 whole entry): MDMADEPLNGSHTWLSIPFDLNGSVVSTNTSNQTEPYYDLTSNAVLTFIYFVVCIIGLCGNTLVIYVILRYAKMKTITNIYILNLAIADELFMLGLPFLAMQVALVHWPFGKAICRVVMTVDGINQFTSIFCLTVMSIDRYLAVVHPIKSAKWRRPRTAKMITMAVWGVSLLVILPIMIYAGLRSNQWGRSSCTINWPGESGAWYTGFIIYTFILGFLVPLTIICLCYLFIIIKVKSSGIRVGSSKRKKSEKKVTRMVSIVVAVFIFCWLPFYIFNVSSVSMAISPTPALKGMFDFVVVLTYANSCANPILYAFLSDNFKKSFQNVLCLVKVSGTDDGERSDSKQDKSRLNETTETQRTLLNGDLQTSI
Sequence of Somatostatin receptor type 1 (P30872 whole entry): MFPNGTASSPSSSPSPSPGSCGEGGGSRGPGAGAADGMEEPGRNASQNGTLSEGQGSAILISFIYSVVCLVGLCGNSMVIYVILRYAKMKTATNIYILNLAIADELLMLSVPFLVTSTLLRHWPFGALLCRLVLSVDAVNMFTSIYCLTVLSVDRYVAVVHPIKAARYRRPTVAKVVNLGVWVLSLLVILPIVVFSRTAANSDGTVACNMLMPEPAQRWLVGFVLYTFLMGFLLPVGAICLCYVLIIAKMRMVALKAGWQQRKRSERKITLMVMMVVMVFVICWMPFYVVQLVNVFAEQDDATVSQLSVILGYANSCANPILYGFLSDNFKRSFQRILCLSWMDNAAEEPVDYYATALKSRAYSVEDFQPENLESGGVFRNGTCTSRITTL

SMILES | Ki [1] | Ki [2] | Ki [3] | Ki [4] | half-life at 0.1 µM [5]
CC(C)(NC(=O)[C@H]1[C@@H]2CNC[C@@H]21)c1noc2c(F)cccc12 | > 9.09 µM | > 9.6 µM | > 8.6 µM | > 9.85 µM | > 2.17 h
Cn1nc(C(C)(C)NC(=O)[C@H]2[C@@H]3CNC[C@@H]32)c2ccccc21 |  | > 9.6 µM | > 8.62 µM | > 9.86 µM | > 2.17 h
Cc1cc2ccccc2c(C(C)(C)NC(=O)[C@H]2[C@@H]3CNC[C@@H]32)n1 |  | > 9.59 µM |  | > 9.85 µM | > 2.17 h
Cc1nc(C(C)(C)NC(=O)[C@H]2[C@@H]3CNC[C@@H]32)c2ccccc2n1 |  | > 9.63 µM | > 8.71 µM | > 9.86 µM | > 2.17 h

Reference: ChEMBL document CHEMBL3421604, “Treating pain with somatostatin receptor subtype 4 agonists” (ACS Med Chem Lett, 2015)
